Data as given in PMC3425544, “The S100A10 Subunit of the Annexin A2 Heterotetramer Facilitates L2-Mediated Human Papillomavirus Infection” (PLoS ONE, 2012).

Test system: Bovine Serum Albumin (BSA)
Assay: EPR binding of L2 peptide to BSA (specificity control)
Conditions: 20 µM peptide, 100 µM BSA
Text: The L2_108–126 peptides used in our EPR studies were synthesized with a cysteine at the N-terminus, and followed by a spacer of 3 physiological amino acids (C-IVS) preceding the canonical L2_108–126 and L2 scrambled sequences (C-IVS-LVEETSFIDAGAPTSVPSI and C-IVS-IESPVSDTALGTPEIFVSA respectively). Peptides were combined with 8× molar excess paramagnetic label (1-oxyl-2, 2, 5, 5-tetramethyl-Δ3-pyrroline-3-methyl) (R1) methanethiosulfonate (MTSL), (Toronto Research Chemicals, Canada) and left to react overnight at 4°C. Free label was removed by gel filtration (PD10 GE, United Kingdom). All peptides were solubilized into HEPES buffer. […] Binding interactions were examined by combining paramagnetically-labeled L2 peptide with A2t, BSA, ANXA2, or S100A10 (20 µM, 100 µM, 100 µM, 100 µM, and 100 µM respectively) in 10 µL volumes of the HEPES buffer, confined by glass capillaries, and measured at room temperature over a period of 24 hours using a Bruker EMX X-band EPR spectrometer. […] To quantify the amount of bound peptide spectra of all tested proteins in combination with the L2_108–126 or ScrL2 peptides were compared to the spectra of L2_108–126 or ScrL2 peptides alone in solution using a spectra analyzing software (EPR 130, University of California, Los Angeles). […]

Question: With “C-IVS-LVEETSFIDAGAPTSVPSI [L2_108–126, HPV16 L2 aa 108–126 peptide with N-terminal cysteine and IVS spacer]” as the substance, how does the “binding to BSA” value read?
Answer: does not bind BSA in a significant manner
